According to US11192867B2, “Microbiocidal oxadiazole derivatives” (SYNGENTA PARTICIPATIONS AG, priority 2016, dated 2021):

Experiments:
[1] = tested on: Puccinia recondita f. sp. Tritici; test: Fungicidal activity against Puccinia recondita f. sp. Tritici / wheat / leaf disc preventative (brown rust); type: in vivo; conditions: foliar, 200 ppm in the applied formulation, wheat leaf segments cv. Kanzler, inoculated 1 day after application, vs untreated control, read-out: disease control
Method: Leaf disks or leaf segments of various plant species are cut from plants grown in a greenhouse. The cut leaf disks or segments are placed in multiwell plates (24-well format) onto water agar. The leaf disks are sprayed with a test solution before (preventative) or after (curative) inoculation. Compounds to be tested are prepared as DMSO solutions (max. 10 mg/ml) which are diluted to the appropriate concentration with 0.025% Tween20 just before spraying. The inoculated leaf disks or segments are incubated under defined conditions (temperature, relative humidity, light, etc.) according to the respective test system. A single evaluation of disease level is carried out 3 to 14 days after inoculation, depending on the pathosystem. Percent disease control relative to the untreated check leaf disks or segments is then calculated. Wheat leaf segments cv. Kanzler were placed on agar in multiwell plates (24-well format) and sprayed with the formulated test compound diluted in water. The leaf disks were inoculated with a spore suspension of the fungus 1 day after application. The inoculated leaf segments were incubated at 19° C. and 75% relative humidity (rh) under a light regime of 12 hours light/12 hours darkness in a climate cabinet and the activity of a compound was assessed as percent disease control compared to untreated when an appropriate level of disease damage appears in untreated check leaf segments (7 to 9 days after application). The following compounds at 200 ppm in the applied formulation give at least 80% disease control in this test when compared to untreated control leaf disks under the same conditions, which show extensive disease development.

[2] = tested on: Phakopsora pachyrhizi; test: Fungicidal activity against Phakopsora pachyrhizi / soybean / leaf disc preventative (Asian soybean rust); type: in vivo; conditions: foliar, 200 ppm in the applied formulation, soybean leaf disks, vs untreated control, read-out: disease control
Method: Leaf disks or leaf segments of various plant species are cut from plants grown in a greenhouse. The cut leaf disks or segments are placed in multiwell plates (24-well format) onto water agar. The leaf disks are sprayed with a test solution before (preventative) or after (curative) inoculation. Compounds to be tested are prepared as DMSO solutions (max. 10 mg/ml) which are diluted to the appropriate concentration with 0.025% Tween20 just before spraying. The inoculated leaf disks or segments are incubated under defined conditions (temperature, relative humidity, light, etc.) according to the respective test system. A single evaluation of disease level is carried out 3 to 14 days after inoculation, depending on the pathosystem. Percent disease control relative to the untreated check leaf disks or segments is then calculated. Soybean leaf disks are placed on water agar in multiwell plates (24-well format) and sprayed with the formulated test compound diluted in water. One day after application leaf discs are inoculated by spraying a spore suspension on the lower leaf surface. After an incubation period in a climate cabinet of 24-36 hours in darkness at 20° C. and 75% rh leaf disc are kept at 20° C. with 12 hours light/12 hours and 75% rh. The activity of a compound is assessed as percent disease control compared to untreated when an appropriate level of disease damage appears in untreated check leaf disks (12 to 14 days after application). The following compounds at 200 ppm in the applied formulation give at least 80% disease control in this test when compared to untreated control leaf disks under the same conditions, which show extensive disease development.

[3] = tested on: Glomerella lagenarium (Colletotrichum lagenarium); test: Fungicidal activity against Glomerella lagenarium (Colletotrichum lagenarium) liquid culture / cucumber / preventative (anthracnose); type: cell-based; conditions: Colletotrichum orbiculare, 72 h; 20 ppm in the applied formulation; liquid culture (PDB), growth inhibition measured photometrically 3 to 4 days after application; vs untreated control; read-out: disease control
Method: Mycelia fragments or conidia suspensions of a fungus prepared either freshly from liquid cultures of the fungus or from cryogenic storage, are directly mixed into nutrient broth. DMSO solutions of the test compound (max. 10 mg/ml) are diluted with 0.025% Tween20 by a factor of 50 and 10 μl of this solution is pipetted into a microtiter plate (96-well format). The nutrient broth containing the fungal spores/mycelia fragments is then added to give an end concentration of the tested compound. The test plates are incubated in the dark at 24° C. and 96% relative humidity. The inhibition of fungal growth is determined photometrically after 2 to 7 days, depending on the pathosystem, and percent antifungal activity relative to the untreated check is calculated.
Conidia of the fungus from cryogenic storage are directly mixed into nutrient broth (PDB—potato dextrose broth). After placing a (DMSO) solution of test compound into a microtiter plate (96-well format), the nutrient broth containing the fungal spores is added. The test plates are incubated at 24° C. and the inhibition of growth is measured photometrically 3 to 4 days after application.
The following compounds at 20 ppm in the applied formulation give at least 80% disease control in this test when compared to untreated control under the same conditions, which show extensive disease development.

SMILES | pest or weed control at 200 ppm [1] [%] | pest or weed control at 200 ppm [2] [%] | inhibition of growth at 20 ppm [3] [%]
O=C(NCC=NOCc1ccccc1)c1ccc(-c2noc(C(F)(F)F)n2)cc1 [Compound 1.90, N-(2-benzyloxyimino-ethyl)-4-[5-(trifluoromethyl)-1,2,4-oxadiazol-3-yl]benzamide] | ≥ 80 | ≥ 80 | ≥ 80
O=C(O)Cc1ccccc1CON=CCNC(=O)c1ccc(-c2noc(C(F)(F)F)n2)cc1 [Compound 1.92, 2-[2-[[2-[[4-[5-(trifluoromethyl)-1,2,4-oxadiazol-3-yl]benzoyl]amino]ethylideneamino]oxymethyl]phenyl] acetic acid] | ≥ 80 | ≥ 80 | ≥ 80
COC(=O)Cc1ccccc1CON=CC(C)NC(=O)c1ccc(-c2noc(C(F)(F)F)n2)cc1 (stereo not shown) [Compound 1.49, methyl 2-[2-[[2-[[4-[5-(trifluoromethyl)-1,2,4-oxadiazol-3-yl]benzoyl]amino]propylideneamino]oxymethyl]phenyl]acetate] | ≥ 80 | – | ≥ 80
COc1ccccc1CON=CCNC(=O)c1ccc(-c2noc(C(F)(F)F)n2)cc1 [Compound 1.68, N-[2-[(2-methoxyphenyl)methoxyimino]ethyl]-4-[5-(trifluoromethyl)-1,2,4-oxadiazol-3-yl]benzamide] | ≥ 80 | ≥ 80 | ≥ 80
CC(CNC(=O)c1ccc(-c2noc(C(F)(F)F)n2)cc1)=NOC(C)(C)C [Compound 1.132, N-(2-tert-butoxyiminopropyl)-4-[5-(trifluoromethyl)-1,2,4-oxadiazol-3-yl]benzamide] | ≥ 80 | ≥ 80 | ≥ 80
CC(CNC(=O)c1ccc(-c2noc(C(F)(F)F)n2)cc1)=NOCC(F)(F)F [Compound 1.139, N-[2-(2,2,2-trifluoroethoxy-imino)propyl]-4-[5-(trifluoromethyl)-1,2,4-oxadiazol-3-yl]benzamide] | ≥ 80 | ≥ 80 | ≥ 80
CC(C=NOC(C)(C)C)NC(=O)c1ccc(-c2noc(C(F)(F)F)n2)cc1 (stereo not shown) [Compound 1.45, N-(2-tert-butoxyimino-1-methyl-ethyl)-4-[5-(trifluoromethyl)-1,2,4-oxadiazol-3-yl]benzamide] | ≥ 80 | ≥ 80 | ≥ 80
O=C(NCC=NOCc1ccccc1F)c1ccc(-c2noc(C(F)(F)F)n2)cc1 [Compound 1.69, N-[2-[(2-fluorophenyl)methoxyimino]ethyl]-4-[5-(trifluoromethyl)-1,2,4-oxadiazol-3-yl]benzamide] | ≥ 80 | ≥ 80 | ≥ 80
O=C(O)CON=CCNC(=O)c1ccc(-c2noc(C(F)(F)F)n2)cc1 [Compound 1.65, 2-[2-[[4-[5-(trifluoromethyl)-1,2,4-oxadiazol-3-yl]benzoyl]amino]ethylideneamino] oxyacetic acid] | ≥ 80 | ≥ 80 | ≥ 80
CC(C)=CCON=CCNC(=O)c1ccc(-c2noc(C(F)(F)F)n2)cc1 [Compound 1.80, N-[2-(3-methylbut-2-enoxyimino)ethyl]-4-[5-(trifluoromethyl)-1,2,4-oxadiazol-3-yl]benzamide] | ≥ 80 | ≥ 80 | ≥ 80
O=C(NCC=NOCc1ccc(F)cc1Cl)c1ccc(-c2noc(C(F)(F)F)n2)cc1 [Compound 1.71, N-[2-[(2-chloro-4-fluoro-phenyl)methoxy-imino]ethyl]-4-[5-(trifluoromethyl)-1,2,4-oxadiazol-3-yl]benzamide] | ≥ 80 | ≥ 80 | ≥ 80
COc1cccc(CON=CCNC(=O)c2ccc(-c3noc(C(F)(F)F)n3)cc2)c1 [Compound 1.62, N-[2-[(3-methoxyphenyl)methoxyimino]ethyl]-4-[5-(trifluoromethyl)-1,2,4-oxadiazol-3-yl]benzamide] | ≥ 80 | ≥ 80 | ≥ 80
O=C(NCC=NOCc1ccccc1Cl)c1ccc(-c2noc(C(F)(F)F)n2)cc1 [Compound 1.67, N-[2-[(2-chlorophenyl)methoxyimino]ethyl]-4-[5-(trifluoromethyl)-1,2,4-oxadiazol-3-yl]benzamide] | ≥ 80 | ≥ 80 | ≥ 80
CC(CNC(=O)c1ccc(-c2noc(C(F)(F)F)n2)cc1)=NOCC=C(Cl)Cl [Compound 1.122, N-[2-(3,3-dichloroallyloxy-imino)propyl]-4-[5-(trifluoromethyl)-1,2,4-oxadiazol-3-yl]benzamide] | ≥ 80 | ≥ 80 | ≥ 80
CC(CNC(=O)c1ccc(-c2noc(C(F)(F)F)n2)cc1)=NOC/C=C\Cl [Compound 1.124, N-[2-[(Z)-3-chloroallyloxy]iminopropyl]-4-[5-(trifluoromethyl)-1,2,4-oxadiazol-3-yl]benzamide] | ≥ 80 | ≥ 80 | ≥ 80
CC(C)=CCON=C(C)CNC(=O)c1ccc(-c2noc(C(F)(F)F)n2)cc1 [Compound 1.123, N-[2-(3-methylbut-2-enoxyimino)propyl]-4-[5-(trifluoromethyl)-1,2,4-oxadiazol-3-yl]benzamide] | ≥ 80 | ≥ 80 | ≥ 80
CC(CNC(=O)c1ccc(-c2noc(C(F)(F)F)n2)cc1)=NOCC(=O)O [Compound 1.109, 2-[[1-methyl-2-[[4-[5-(trifluoromethyl)-1,2,4-oxadiazol-3-yl]benzoyl]amino]ethylidene]amino] oxyacetic acid] | ≥ 80 | – | ≥ 80
O=C(NCC=NOCc1ccc([N+](=O)[O-])cc1)c1ccc(-c2noc(C(F)(F)F)n2)cc1 [Compound 1.61, N-[2-[(4-nitrophenyl)methoxyimino]ethyl]-4-[5-(trifluoromethyl)-1,2,4-oxadiazol-3-yl]benzamide] | ≥ 80 | ≥ 80 | –
CC(CNC(=O)c1ccc(-c2noc(C(F)(F)F)n2)cc1)=NOCc1ccccc1CC(=O)O [Compound 1.136, 2-[2-[[[1-methyl-2-[[4-[5-(trifluoromethyl)-1,2,4-oxadiazol-3-yl]benzoyl]amino]ethylidene]amino]oxymethyl]phenyl]acetic acid] | ≥ 80 | – | ≥ 80
COc1cccc(CON=C(C)CNC(=O)c2ccc(-c3noc(C(F)(F)F)n3)cc2)c1 [Compound 1.106, N-[2-[(3-methoxyphenyl)methoxyimino]propyl]-4-[5-(trifluoromethyl)-1,2,4-oxadiazol-3-yl]benzamide] | ≥ 80 | – | ≥ 80
